In paper PMC5471438, “Linaclotide activates guanylate cyclase‐C/cGMP/protein kinase‐II‐dependent trafficking of CFTR in the intestine” (Physiological Reports, 2017):
“Also recorded” adds a separate entry of the source.

Columns and labels:
CFTR [1] = assay: Confocal immunofluorescence of CFTR in rat intestine; type: in vivo; details: linaclotide 5 μg, 30 min
Method: (§1) All animal studies were approved by the Institutional Animal Care and Use Committee of Yale University School of Medicine. Briefly, male Sprague–Dawley rats (200–250 g, Charles River Laboratories) were fasted overnight with access to drinking water ad libitum. Anesthesia was performed with Inactin® (Thiobutabarbital sodium salt hydrate, 120 mg/kg/i.p.). The jejunal, ileal, and proximal colonic loops (5 cm length) were prepared using sutures. Loops were instilled either with normal saline (pH7.4, 37°C) (1 mL/loop) or linaclotide (5 μg/mL/loop) for 30 min. At the end of the study, animals were euthanized with Inactin (200 mg/kg/i.p.).
After completion of treatment either with normal saline or linaclotide for 30 min, intestinal segments were immediately removed and briefly rinsed with ice‐cold PBS. Tissues were cut into ~2‐mm‐thick rings, fixed in 2% paraformaldehyde in PBS, pH 7.4 for 1 h at room temperature, rinsed with PBS and cryoprotected in 30% sucrose overnight. Multiple tissue samples were processed under identical conditions by the utilization of tissue arrays as previously described (Jakab et al. 2011). […] Immunolabeled sections were stored at 4°C and examined on Zeiss LSM 710 DUO laser scanning confocal microscope outfitted with a Mai‐Tai laser and electronics capable of spectrally separating fluorescence emission profiles. […]

CFTR [2] = assay: Surface biotinylation of CFTR in rat jejunum enterocytes after in vivo loop treatment; details: linaclotide 5 μg/mL/loop, 30 min in vivo, vs saline and untreated, mean ± SEM (n = 4)
Caco‐2 cell line = details: human colonic Caco‐2 cell line; ref Castro et al. 2013; Silos‐Santiago et al. 2013; cited from earlier work
Description: (§2) While the increase in intracellular cGMP following ligand activation of GC‐C is well established, the efflux of cGMP from enterocytes is not well studied.

mouse colonic mucosa = details: apical and basolateral membrane, ref Silos‐Santiago et al. 2013, Tchernychev et al. 2015; cited from earlier work
Description: as §2

rat colonic mucosa = details: apical and basolateral membrane, ref Silos‐Santiago et al. 2013, Tchernychev et al. 2015; cited from earlier work
Description: as §2

[3] = via extracellular cGMP; ref Castro et al. 2013; Silos‐Santiago et al. 2013; Hannig et al. 2014; cited from earlier work
Description: as §2

[4] = test system: rat proximal colonic mucosa; parameters: method as in 2 sources, one per row (each row's own in cited_ref): ref Tchernychev et al. 2015 ||| ref Vaandrager et al. 1997; details: rat proximal colon / colonic epithelium; ref Tchernychev et al. 2015; read-out: EC50 for transepithelial ion current; cited from earlier work
[5] = Stability of linaclotide in human mucosa tissue supernatants by LC-MS; details: human intestinal mucosa supernatants, 1 μmol/L, 30 and 60 min incubation, 37°C
human colonic mucosa = assay: Transepithelial short circuit current (Isc) across human ascending colonic mucosa, Ussing chamber; details: human ascending colon, linaclotide 30 nmol/L and 1000 nmol/L, apical, pH 7.4, 37°C; mean ± SEM (n = 12)
rat jejunum = assay: Fluid secretion in ligated rat jejunal loops in vivo; parameters: species or system rat (Sprague–Dawley); details: linaclotide 5 μg/mL/loop, 30 min, vs saline (1 mL)
Method: as §1
The guanylate cyclase‐C (GC‐C) agonist linaclotide stimulates the production and accumulation of intracellular cGMP, which acts as a second messenger to enhance fluid secretion in the intestine (Schulz et al. 1990; Busby et al. 2013). We first tested whether linaclotide can enhance fluid secretion in vivo in the rat small intestine. Following anesthesia and laparotomy, intestinal loops were created in rat jejunum and injected either with vehicle (saline, 1 mL) or linaclotide (5 μg/1 mL). […] In this study, we examined whether linaclotide treatment also stimulates fluid secretion by recruiting CFTR to the apical surface of rat jejunum enterocytes in vivo. […]

C2BBe cells = assay: cGMP synthesis in C2BBe cells; type: cell-based, human
cGKII (PKGII) = assay: VASP Ser239 phosphorylation in C2BBe cells, Western blot; type: cell-based, human; details: linaclotide 1 and 3.27 μmol/L, 30 min, 8Br‐cGMP 0.2 and 1 mmol/L positive control
Method: C2BBe or T84 cells were homogenized in TGH lysis buffer [25 mmol/L HEPES, 10% (vol/vol) glycerol, 1% (vol/vol) Triton‐ × 100, pH 7.4] containing protease inhibitors (10 nmol/L iodoacetamide, 1 mmol/L phenylmethylsulfonyl fluoride (PMSF), 2 μg/mL leupeptin) for 30 min on ice. Homogenates were solubilized, subject to centrifugation at 13,200 g for 15 min at 4°C, and cleared supernatants were recovered. Protein concentration of the supernatant was determined with Coomassie Protein Assay Reagent (Pierce) and samples prepared and analyzed as described (Kravtsov et al. 2016). Quantification of surface‐labeled proteins was performed with Quantity One image analysis software.
VASP was originally characterized as a substrate for both PKG (cGMP‐dependent kinase) and PKA (cAMP‐dependent kinase). […] To determine linaclotide‐induced activation of cGKII, we determined the phosphorylation of VASP^Ser239 30 min following treatment either with vehicle or linaclotide (1 μmol/L and 3.27 μmol/L; the 3.27 μmol/L concentration is equivalent to the 5 μg dose of linaclotide that was used in vivo in the rat jejunum loop). The membrane permeant cGMP analog, 8 Br‐cGMP (0.2 mmol/L, 1 mmol/L), was used as a positive control.

GC‐C = assay: cGMP in human intestinal mucosa tissues and supernatants; details: human jejunum, ileum, ascending colon mucosa, linaclotide 1 μmol/L, 30 and 60 min, 37°C, IBMX 1 mmol/L, EIA, mean ± SD (n = 4)
[6] = test system: rat proximal colonic mucosa; assay: Transepithelial short circuit current (Isc) across rat proximal colonic mucosa, Ussing chamber; parameters: species or system rat (Sprague–Dawley); details: rat proximal colonic mucosa, linaclotide 6 nmol/L and 100 nmol/L, apical; mean ± SEM (n = 4)
CFTR [7] = assay: Surface biotinylation of CFTR in C2BBe cells; type: cell-based, human; details: linaclotide 1 μmol/L and 3.27 μmol/L, 30 min

## linaclotide
CFTR [1]
  CFTR localization in brush border (confocal): accumulation of CFTR in the brush border
CFTR [2]
  surface CFTR (surface biotinylation, Western blot): highest levels of surface CFTR; also recorded: robust increase in surface CFTR when compared to the untreated intestine
Caco‐2 cell line
  cGMP efflux: induce cGMP efflux
Mouse colonic mucosa
  cGMP efflux: induce cGMP efflux
Rat colonic mucosa
  cGMP efflux: induce cGMP efflux
[3]
  antinociceptive effect: antinociceptive effects in several models of colonic hypersensitivity
[4]
  EC50: 9.2 nM
[5]
  stability of linaclotide in tissue supernatants: stable under these conditions
Human colonic mucosa
  linaclotide-induced transepithelial ion current (Isc): induced transepithelial ion current at concentrations of 30 nmol/L and 1000 nmol/L
Rat jejunum
  fluid secretion in jejunal loop: robust fluid secretion; also recorded: distended and tightly filled with fluid; also recorded: robust increase in fluid accumulation in jejunum loops
C2BBe cells
  EC80 for cGMP synthesis (approximate): ~1000 nM
  EC100 for cGMP synthesis (approximate): ~3 µmol/L
C2BBe cells; IBMX 1 mmol/L 10 min, linaclotide 0.001–10 μmol/L 30 min, 37°C, pH 7, cGMP in supernatants by LC/MS/MS, n = 4
  EC50: 523 nM
C2BBe cells; linaclotide 0.001–10 μmol/L, 30 min, IBMX 1 mmol/L
  cGMP synthesis: concentration dependently stimulated cGMP synthesis
cGKII (PKGII)
  phosphorylation of VASP Ser239: more robust phosphorylation of VASP^Ser239 compared to 8Br‐cGMP; also recorded: higher levels of VASP^Ser239 phosphorylation compared to the lower concentration
cGKII (PKGII); listed as Linaclotide
  phosphorylation of VASP Ser239: more strongly enhanced phosphorylation of VASP^Ser239 compared to the cGMP analog 8‐Br‐cGMP
GC‐C
  cGMP level in supernatant (extracellular): greater after 30 min, compared to levels measured after 60 min
  cGMP level in tissue (intracellular): greater after 30 min, compared to levels measured after 60 min
GC‐C; listed as Linaclotide
  cGMP level in supernatant (extracellular): increased levels of both intracellular and extracellular cGMP
  cGMP level in tissue (intracellular): increased levels of both intracellular and extracellular cGMP
[6]
  linaclotide-induced transepithelial ion current (Isc): induced a transepithelial ion current at both concentrations
CFTR [7]
  CFTR recruitment to cell surface: increased cell surface CFTR levels; also recorded: robust recruitment of CFTR to the apical surface; also recorded: robust increase in surface levels of CFTR compared to untreated control cells; also recorded: higher surface CFTR levels in C2BBe cells compared to T84 cells
